Laboratory results reported in patent US7169592B2, “Producing optically active amino compounds” (Kaneka Corporation, priority 1997, dated 2007).
“And” between values parts separate entries of the source, which are not always exact repeats. Equal entries are not always repeated. Where two headings read alike, the source gives them in different places. Marks after values point to notes of the source that are not given here.

How the values were obtained:
[1] = system: Arthrobacter species KNK168 strain; experiment: Amino group donors in whole-cell transamination of 1-(3,4-dimethoxyphenyl)-2-propanone; format: cell-based; settings: for (R)-DMA Formed: 1% amino group donor, 1% 1-(3,4-dimethoxyphenyl)-2-propanone, 0.1% Triton X-100, pH 8.5, 35° C., 20 hours; for Function as amino group donor (in words): whole cells
Procedure: The cultured cells were harvested by centrifugation, and the harvested cells were suspended in a reaction mixture (pH 8.5) containing 1% 1-(3,4-dimethoxyphenyl)-2-propanone, 0.1% Triton X-100, and 1% an amino group donor shown in Table 5. The mixture was reacted at 35° C. for 20 hours.

[2] = system: Arthrobacter species KNK168 strain; experiment: Inducer added during culture; (R)-DMA formation by the separated cells; format: cell-based; settings: substance added to medium as inducer; reaction 30° C., 20 hours, 1% 1-(3,4-dimethoxyphenyl)-2-propanone, 1% (RS)-1-methylpropylamine
Procedure: When culturing the Arthrobacter species KNK168 strain by the method described in Example 1, (RS)-1-methylpropylamine, (RS)-1-methylbutylamine, (RS)-3-amino-2,2-dimethylbutane, (RS)-2-amino-1-butanol, or (RS)-1-phenylethylamine was added to the medium in place of (R)-1-(3,4-dimethoxyphenyl)-2-aminopropane ((R)-DMA). The cells were separated from the culture, and the reaction was carried out at 30° C. for 20 hours using the above cells in a reaction mixture containing 1% 1-(3,4-dimethoxyphenyl)-2-propanone and 1% (RS)-1-methylpropylamine.

[3] = molecular target: T1, ω-amino acid transaminase (Pseudomonas putida, UniProt P28269); settings: purified enzyme, literature; pyruvic acid as amino group acceptor; cited from earlier work
T1 sequence (P28269 1-449): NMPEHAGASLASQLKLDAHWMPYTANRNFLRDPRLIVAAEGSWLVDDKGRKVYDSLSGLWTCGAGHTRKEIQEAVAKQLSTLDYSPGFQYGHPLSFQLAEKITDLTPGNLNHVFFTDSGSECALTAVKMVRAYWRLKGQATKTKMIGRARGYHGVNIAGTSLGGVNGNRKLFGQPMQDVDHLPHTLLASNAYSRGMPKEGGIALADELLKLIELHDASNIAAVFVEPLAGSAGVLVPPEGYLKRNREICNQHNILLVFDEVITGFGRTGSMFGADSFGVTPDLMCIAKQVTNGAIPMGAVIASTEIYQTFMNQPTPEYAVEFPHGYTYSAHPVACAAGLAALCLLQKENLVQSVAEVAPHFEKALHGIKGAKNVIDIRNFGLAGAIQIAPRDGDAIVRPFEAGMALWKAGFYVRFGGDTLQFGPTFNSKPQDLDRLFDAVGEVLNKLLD

[4] = system: Transaminase of Present Invention (purified enzyme); experiment: Reactivity of purified transaminase to amino compounds (amino group donors) with pyruvic acid as acceptor; format: biochemical, Arthrobacter sp. KNK168; design: Substrate Specificity, relative activity: concentration or dose not given beside the values; settings: for Substrate Specificity, relative activity: purified enzyme, pyruvic acid as amino group acceptor; for Relative Activity: amino compound 40 mM in substrate solution, pyruvic acid acceptor, pH 8.3, 30° C., 1 hour, (R)-1-phenylethylamine = 100
Excerpt: (§1) The differences with the ω-amino acid transaminase derived from Pseudomonas sp. F-1 (Agric. Biol. Chem., 42, 2363–2367 (1978), Agric. Biol. Chem., 43, 1043–1048 (1979), J. Biol. Chem., 258, 2260–2265 (1983)) which have been well studied among the ω-amino acid transaminases, and with the benzylamine transaminase of Okada et al. (Japanese Patent Laid-Open No. Hei 6-178685) are summarized and shown in Table 2. In a case of the transaminase reaction in the present invention, the data of the purified enzyme are used, and in cases of those by other two enzymes, the data of the purified enzymes which are disclosed in each of the literature publication and laid-open patent publication are used. Pyruvic acid is used as an amino group acceptor in all cases.
Using the purified enzyme protein obtained in Example 9, reactivities to various amino compounds when using pyruvic acid as an amino acceptor were evaluated. A 150 μl solution of the purified enzyme protein solution diluted ten-folds was added to a 150 μl substrate solution [0.1 M potassium phosphate buffer (pH 8.3), 40 mM pyruvic acid, 0.1 mM pyridoxal phosphate, and 40 mM various amino compounds]. The components were reacted at 30° C. for 1 hour. The reaction tube was transferred into boiling water to stop the reaction, and thereafter, a part of the reaction mixture was diluted five-folds. Ten μl 0.1 M boric acid buffer (pH 8.0) and a 20 μl ethanol solution of 80 mM 4-fluoro-7-nitro-2,1,3-benzoxadiazole (NBD-F) were added to the 10 μl above-mentioned diluted reaction mixture. The resulting mixture was reacted at 60° C. for 1 minute, and thereafter, the resulting mixture was ice-cooled, and 460 μl 5 mM HCl was added thereto. This reaction mixture was analyzed by high-performance liquid chromatography using a fine pack C18-5 column (manufactured by Nippon Bunko) I and using 0.1 M potassium phosphate buffer (pH 6.5) and CH3CN (90:10) as an eluent to detect formation of NBD-Alanine with an excitation wavelength of 470 nm and a detection wave of […]. The results thereof are shown in Table 8 in terms of relative activity in the case of using […] as a substrate.

[5] = system: transaminase (intracellular enzyme); experiment: Activity of the transaminase (intracellular enzyme) on typical substrates of ω-aminotransferases; format: biochemical, Arthrobacter sp. KNK168
[6] = system: benzylamine transaminase of Okada et al.; settings: cited from earlier work; for Substrate Specificity, relative activity: purified enzyme, laid-open patent publication, pyruvic acid as amino group acceptor
[7] = system: benzylamine transaminase of Okada et al.; settings: without addition = 100, cited from earlier work
[8] = system: Transaminase of Present Invention (purified enzyme); experiment: Influence of reaction inhibitors on purified transaminase; format: biochemical, Arthrobacter sp. KNK168; settings: for Relative activity with inhibitor: inhibitor 1 mM, without addition = 100
Excerpt: as §1

[9] = molecular target: T1, ω-amino acid transaminase; settings: inhibitor 1 mM; without addition = 100; cited from earlier work
[10] = system: Transaminase of Present Invention; experiment: Usability as amino group donor, transaminase of present invention; format: biochemical, Arthrobacter
Excerpt: Further, the transaminase derived from Arthrobacter which can be used in the present invention is different from the above-mentioned enzyme derived from Brevibacterium in many other aspects.

[11] = amino group acceptor 2-ketoglutaric acid, (R)-1-phenylethylamine/pyruvic acid = 100 (control)

## CCCC(C)N (racemic) [(RS)-1-Methylbutylamine]
[1]
  (R)-DMA Formed: 54.7% and 56.9%
  Function as amino group donor (in words): functioned as amino group donors
[2]
  (R)-DMA Formed: 13.0%

## CCC(C)N (racemic) [(RS)-1-Methylpropylamine]
[1]
  (R)-DMA Formed: 28.2%
  Function as amino group donor (in words): functioned as amino group donors
[2]
  (R)-DMA Formed: 22.3%

## CC(N)c1ccccc1 (racemic) [(RS)-1-Phenylethylamine]
[1]
  (R)-DMA Formed: 61.3%
  Function as amino group donor (in words): functioned as amino group donors
[2]
  (R)-DMA Formed: 8.0%

## CCC(N)CO (racemic) [(RS)-2-Amino-1-butanol]
[2]
  (R)-DMA Formed: 12.9%

## CC(N)C(C)(C)C (racemic) [(RS)-3-Amino-2,2-dimethylbutane]
[2]
  (R)-DMA Formed: 18.6%

## NCCCC(=O)O [4-Aminobutyric acid]
[3]
  Substrate Specificity, relative activity: 40%
[4]
  Action of the transaminase on the substance (in words): does not act on
  Substrate Specificity, relative activity: 0%
[5]; [11]
  Relative Activity: 0%

## COc1ccc(C[C@@H](C)N)cc1OC [(R)-DMA, (R)-1-(3,4-dimethoxyphenyl)-2-aminopropane]
[2]
  (R)-DMA Formed: 0.9%
[4]
  Relative Activity: 30%

## NCc1ccccc1 [Benzylamine]
[3]
  Substrate Specificity, relative activity: 45%
[6]; in the presence of pyruvic acid
  Action of benzylamine transaminase on the substance (in words): strongly acts on
[6]
  Substrate Specificity, relative activity: 100%
[4]
  Relative Activity: 0.8%
  Substrate Specificity, relative activity: 0.8%

## O=S(=O)([O-])[O-].[Cu+2] [CuSO4]
[7]; inhibitor 0.5 mM
  Relative activity with inhibitor: 5%
[8]
  Relative activity with inhibitor: 44%

## CC(C)(S)[C@@H](N)C(=O)O [D-Penicillamine]
[7]; inhibitor 1 mM
  Relative activity with inhibitor: 0%
[8]
  Relative activity with inhibitor: 93%

## NO [Hydroxylamine]
[7]; inhibitor 0.1 mM
  Relative activity with inhibitor: 30%
[9]
  Relative activity with inhibitor: 0%
[8]
  Influence of reaction inhibitor on the transaminase (in words): affected only a little
  Relative activity with inhibitor: 17%

## NNc1ccccc1 [Phenylhydrazine]
[7]; inhibitor 1 mM
  Relative activity with inhibitor: 27%
[8]
  Influence of reaction inhibitor on the transaminase (in words): affected only a little
  Relative activity with inhibitor: 82%

## NCCCCN [Putrescine]
[3]
  Substrate Specificity, relative activity: 55%
[6]
  Substrate Specificity, relative activity: 0%
[4]
  Action of the transaminase on the substance (in words): does not act on
  Substrate Specificity, relative activity: 0%
[5]; [11]
  Relative Activity: 0%

## Cl.N [ammonium chloride]
[10]
  Amino Group Donor (usable or not): cannot be used as an amino group donor

## N[C@@H](CC(=O)O)C(=O)O [aspartic acid]
[10]
  Amino Group Donor (usable or not): cannot be used as an amino group donor

## N[C@@H](CCC(=O)O)C(=O)O [glutamic acid]
[10]
  Amino Group Donor (usable or not): cannot be used as an amino group donor

## CCCCN [n-Butylamine]
[3]
  Substrate Specificity, relative activity: 60%
[6]
  Substrate Specificity, relative activity: 0%
[4]
  Action of the transaminase on the substance (in words): does not act on
  Substrate Specificity, relative activity: 0%

## O=C(O)c1cc[c]([Hg][Cl])cc1 [p-Chloromercuribenzoic acid]
[7]; inhibitor 0.1 mM
  Relative activity with inhibitor: 9%
[9]
  Relative activity with inhibitor: 100%
[8]
  Relative activity with inhibitor: 53%

## NCCC(=O)O [β-Alanine]
[3]
  Substrate Specificity, relative activity: 100* %
[6]
  Substrate Specificity, relative activity: 0* %
[4]
  Action of the transaminase on the substance (in words): does not act on
  Substrate Specificity, relative activity: 0* %
[5]
  Activity on the substance as amino group donor (in words): does not act on
[5]; amino group acceptor pyruvic acid, (R)-1-phenylethylamine = 100 (control)
  Relative Activity: 0%

## NCCc1ccccc1 [β-Phenethylamine]
[3]
  Substrate Specificity, relative activity: 54%
[6]
  Substrate Specificity, relative activity: 9%
[4]
  Substrate Specificity, relative activity: 0%
